Assay results published in the SangsterLogP compilation.
Where a SMILES comes first, the peptide text is derived from it. The star is where a group is joined. X1 = O=C(CCCCSc1ncnc2nc[nH]c12)*

Assay: from Bachrata, M.; Bezakova, Z.; Pesák, M.; Blesova, M. (1983). Study of physicochemical properties of substances with cancerostatic effect. II. Study of lipo-hydrophilic parameters. Acta Fac. Pharm. …
Details: pH 7.0

**Q.** Which logD does the source give for CCOC(=O)C(NC(=O)CCCCSc1ncnc2[nH]cnc12)C(C)C (racemic) here?
**A.** 1.89

**Q.** With CCOC(=O)C(C)NC(=O)CCCCSc1ncnc2nc[nH]c12 (configuration not stated) as the molecule, how does the logD read?
**A.** 1.51

**Q.** Which logD does the source give for CCOC(=O)C(NC(=O)CCCCSc1ncnc2nc[nH]c12)c1ccccc1 (configuration not stated) here?
**A.** 1.13

**Q.** Which logD does the source give for CCCOC(=O)CNC(=O)CCCCSc1ncnc2nc[nH]c12 here?
**A.** 1.37

**Q.** Which logD does the source give for CCCCOC(=O)CNC(=O)CCCCSc1ncnc2nc[nH]c12 here?
**A.** 1.39

**Q.** With CCOC(=O)[C@H](CC(C)C)NC(=O)CNC(=O)CNC(=O)CCCCSc1ncnc2nc[nH]c12 as the molecule, how does the logD read?
**A.** 1.07

**Q.** With CCOC(=O)C[C@H](NC(=O)CCCCSc1ncnc2nc[nH]c12)C(=O)OCC as the molecule, how does the logD read?
**A.** 1.33

**Q.** For CCOC(=O)CNC(=O)CNC(=O)CNC(=O)CCCCSc1ncnc2nc[nH]c12, which logD is on record?
**A.** 0.21

**Q.** Which logD does the source give for CCOC(=O)CNC(=O)CNC(=O)CNC(=O)CNC(=O)CCCCSc1ncnc2nc[nH]c12 (X1-GGGG-OEt) here?
**A.** -0.23

**Q.** With CCOC(=O)CNC(=O)CNC(=O)CCCCSc1ncnc2nc[nH]c12 as the molecule, how does the logD read?
**A.** 0.5

**Q.** With CCOC(=O)CNC(=O)CCCCSc1ncnc2nc[nH]c12 as the molecule, how does the logD read?
**A.** 0.91

**Q.** Which logD does the source give for c1ncc2[nH]cnc2n1 here?
**A.** -0.21
